Results published in PMC7397274, “Triazolopyridopyrimidine: A New Scaffold for Dual-Target Small Molecules for Alzheimer’s Disease Therapy” (Molecules, 2020).
Several values for one entry are separate records, joined by “and”; a condition that tells them apart may be missing. Equal values may be shown once. Read-outs that look alike come from different tables or passages of the source.

Key:
[1] = target: T1, EeAChE (Electrophorus electricus, UniProt O42275); assay: biochemical; assay type: biochemical; conditions: for inhibition at 10 µM: 10 μM compound; for inhibition at 10 µM / IC50: Ellman method; for IC50: mean ± SEM; for fold less active than tacrine (EeAChE IC50): relative to tacrine IC50 = 0.03 μM
T1 construct: purchased Sigma Aldrich
Description: The effect of the test compounds on the activity of both EeAChE and eqBuChE was evaluated following the spectrophotometric method of Ellman. The reaction occurred in a final volume of 3 mL of a 0.1 M phosphate-buffered solution at pH = 8.0, containing 5,5′-dithiobis-2-nitrobenzoic acid (DTNB, 2625 µL, 0.35 mM, final concentration), EeAChE (29 µL, 0.035 U/mL, final concentration) or eqBuChE (60 µL, 0.05 U/mL, final concentration), tested compound (3 µL, […]), and 1% w/v bovine albumin serum phosphate-buffered (pH = 8) solution (BSA, 60 µL). After this pre-incubation period, acetylthiocholine iodide (105 µL, 0.35 mM, final concentration) or butyrylthiocholine iodide (150 µL, 0.5 mM, final concentration) was added, allowing 15 min of additional incubation time.

[2] = ORAC-FL; for ORAC (TE): fluorescein probe, Trolox standard, mean (n = 3) ± SEM; for antioxidant activity (ORAC) in words: qualitative statement or comparison with positive controls

T1 sequence (O42275 24-633): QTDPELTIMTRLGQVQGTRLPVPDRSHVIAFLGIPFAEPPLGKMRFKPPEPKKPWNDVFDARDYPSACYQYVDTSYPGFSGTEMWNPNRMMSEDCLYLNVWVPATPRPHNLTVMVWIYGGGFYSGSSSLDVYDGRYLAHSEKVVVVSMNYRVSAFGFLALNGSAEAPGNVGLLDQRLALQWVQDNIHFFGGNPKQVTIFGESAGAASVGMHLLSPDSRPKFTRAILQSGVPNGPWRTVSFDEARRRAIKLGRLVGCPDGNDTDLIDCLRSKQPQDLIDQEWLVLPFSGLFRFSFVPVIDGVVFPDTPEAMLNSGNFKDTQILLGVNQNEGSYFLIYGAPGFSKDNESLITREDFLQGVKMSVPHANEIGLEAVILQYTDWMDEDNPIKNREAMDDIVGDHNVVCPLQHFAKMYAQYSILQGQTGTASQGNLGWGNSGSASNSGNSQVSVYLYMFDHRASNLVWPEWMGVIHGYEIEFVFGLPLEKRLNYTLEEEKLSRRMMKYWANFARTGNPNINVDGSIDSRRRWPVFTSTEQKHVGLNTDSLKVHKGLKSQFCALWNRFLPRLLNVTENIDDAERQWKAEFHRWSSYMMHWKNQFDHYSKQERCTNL

Structure (SMILES) | inhibition at 10 µM [1] [%] | ORAC (TE) [2] | antioxidant activity (ORAC) in words [2] | ORAC (TE) ([2]; listed as ferulic acid) | IC50 [1] | fold less active than tacrine (EeAChE IC50) [1] [fold]
N#Cc1c(-c2ccc(Oc3ccccc3)cc2)c2c(N)ncnc2n2nc(-c3ccccc3)nc12 [Compound 3k, 6-Amino-5-(4-phenoxyphenyl)-2-phenyl-[1,2,4]triazolo[1′,5′:1,6]pyrido[2,3-d] pyrimidine-4-carbonitrile] | 18.6 ± 1.8 | 2.99 ± 0.2 TE | weaker antioxidant activity |  |  | 
CC(C)c1ccc(-c2c(C#N)c3nc(-c4ccccc4)nn3c3ncnc(N)c23)cc1 [Compound 3i, 6-Amino-5-(4-isopropylphenyl)-2-phenyl-[1,2,4]triazolo[1′,5′:1,6]pyrido[2,3-d] pyrimidine-4-carbonitrile] | 18.2 ± 1 | 1.89 ± 0.1 TE |  |  |  | 
N#Cc1c(-c2ccc(Br)cc2)c2c(N)ncnc2n2nc(-c3ccccc3)nc12 [Compound 3j, 6-Amino-5-(4-bromophenyl)-2-phenyl-[1,2,4]triazolo[1′,5′:1,6]pyrido[2,3-d] pyrimidine-4-carbonitrile] | 38.1 ± 1.1 | 2.57 ± 0.0 TE |  |  |  | 
COc1cc(/C=C/C(=O)O)ccc1O [Ferulic acid, reference compound] |  | 3.74 ± 0.2 TE |  | 3.7 |  | 
COc1ccccc1-c1c(C#N)c2nc(-c3ccccc3)nn2c2ncnc(N)c12 [Compound 3e, 6-Amino-5-(2-methoxyphenyl)-2-phenyl-[1,2,4]triazolo[1′,5′:1,6]pyrido[2,3-d] pyrimidine-4-carbonitrile] | 32.3 ± 2.4 | 3.79 ± 0.1 TE |  |  |  | 
COc1ccc(-c2c(C#N)c3nc(-c4ccccc4)nn3c3ncnc(N)c23)cc1 [Compound 3c, 6-Amino-5-(4-methoxyphenyl)-2-phenyl-[1,2,4]triazolo[1′,5′:1,6]pyrido[2,3-d] pyrimidine-4-carbonitrile] | 63.9 ± 1.8 | 4.01 TE and 4.01 ± 0.1 TE |  |  | 1.3 µM and 1.32 µM | 44
N#Cc1c(-c2ccccc2)c2c(N)ncnc2n2nc(-c3ccccc3)nc12 [Compound 3a, 6-Amino-2,5-diphenyl-[1,2,4]triazolo[1′,5′:1,6]pyrido[2,3-d] pyrimidine-4-carbonitrile] | 40.3 ± 2.4 | 1.85 ± 0.1 TE |  |  |  | 
N#Cc1c(-c2ccc([N+](=O)[O-])cc2)c2c(N)ncnc2n2nc(-c3ccccc3)nc12 [Compound 3h, 6-Amino-5-(4-nitrophenyl)-2-phenyl-[1,2,4]triazolo[1′,5′:1,6]pyrido[2,3-d] pyrimidine-4-carbonitrile] | 44.6 ± 1.6 | 3.54 ± 0.1 TE | moderate antioxidants |  |  | 
COc1cccc(-c2c(C#N)c3nc(-c4ccccc4)nn3c3ncnc(N)c23)c1 [Compound 3d, 6-Amino-5-(3-methoxyphenyl)-2-phenyl-[1,2,4]triazolo[1′,5′:1,6]pyrido[2,3-d] pyrimidine-4-carbonitrile] | 31.2 ± 2.1 | 4.33 ± 0.1 TE |  |  |  | 
N#Cc1c(-c2ccc(O)cc2)c2c(N)ncnc2n2nc(-c3ccccc3)nc12 [Compound 3g, 6-Amino-5-(4-hydroxyphenyl)-2-phenyl-[1,2,4]triazolo[1′,5′:1,6]pyrido[2,3-d] pyrimidine-4-carbonitrile] | 36.4 ± 0.6 | 7.17 TE and 7.17 ± 0.2 TE | most potent antioxidant |  |  | 
N#Cc1c(-c2ccc(Cl)cc2)c2c(N)ncnc2n2nc(-c3ccccc3)nc12 [Compound 3f, 6-Amino-5-(4-chlorophenyl)-2-phenyl-[1,2,4]triazolo[1′,5′:1,6]pyrido[2,3-d] pyrimidine-4-carbonitrile] | 43.9 ± 1.2 | 1.81 ± 0.1 TE |  |  |  | 
Cc1ccc(-c2c(C#N)c3nc(-c4ccccc4)nn3c3ncnc(N)c23)cc1 [Compound 3b, 6-Amino-2-phenyl-5-(p-tolyl)-[1,2,4]triazolo[1′,5′:1,6]pyrido[2,3-d] pyrimidine-4-carbonitrile] | 73.13 ± 0.1 | 1.77 TE and 1.77 ± 0.1 TE |  |  | 1.17 µM | 39
